Data as given in publication PMC9635472, “Design, synthesis, and biological evaluation of novel ciprofloxacin derivatives as potential anticancer agents targeting topoisomerase II enzyme” (Journal of Enzyme Inhibition and Medicinal Chemistry, 2022).

Columns and labels:
[1] = test system: human prostate carcinoma (PC-3) cell line; test: MTT cell viability assay, PC-3 cells; format: cell-based; conditions: prostate cancer cell line PC-3, treatment for 24 h (table title), means of three experiments, read-out: IC50 (μM* ± SD) PC-3
Experimental: (§1) Human bladder cancer (T-24) and human prostate carcinoma (PC-3) cell lines were obtained from American Type Culture Collection (ATCC; Manassas, VA USA). Cells were maintained in Dulbecco’s modified Eagle medium with 10% foetal bovine serum at 37 °C and 5% CO2. All the operations were carried out under strict aseptic conditions. The culture medium was removed to a centrifuge tube containing 9.0 ml complete culture medium and spanned at approximately 125 × g for 5 to 7 min. The cell layer was rinsed with 0.25% (w/v) trypsin- […] EDTA solution by which all traces of serum-containing inhibitor were removed. Trypsin EDTA solution 2.0 to 3.0 ml was added to a flask and cells were monitored under an inverted microscope until the cell layer was dispersed (usually within 5–15 min). A complete growth medium was added (6.0–8.0 ml), and cells were aspirated by gentle pipetting. The cell pellet was suspended with the recommended complete medium and dispensed into a 75 cm^2 culture flask. The culture vessel containing the complete growth medium was placed in the incubator for 24 h to at 37 °C. The cells were treated with different concentrations (0.39, 1.60, 6.25, 25, and 100 μg/ml) of each of the test compounds or doxorubicin, […], then the plates were examined under the inverted microscope and finally the MTT assay was carried out.
(§2) Anti-cancer activity of the newly synthesised compounds was evaluated in vitro against both T-24 and PC-3 cell lines according to the MTT method. Cells were seeded into 96-well plates (flat bottom) at a density of 10 000 cells/well for 24 h. The vial of MTT to be used was reconstituted with 3 ml of medium or balanced salt solution without phenol red and serum. then, a reconstituted MTT vial was added in an amount equal to 10% of the culture medium volume. Cultures were incubated for 2–4 h depending on the cell type and maximum cell density and removed from the incubator and the formazan crystals were dissolved via the addition of an amount of MTT solubilisation solution (M-8910) equal to the original culture medium volume. ROBONIK P2000 spectrophotometer at a wavelength of 570 nm was used to measure the colour intensity spectrophotometrically. The survival curve of both T-24 and PC-3 cells was obtained by plotting the percentage of surviving cells against the drug after each compound. The IC50 value for each test compound and the reference drug doxorubicin was calculated.
(§3) In this study, all the newly synthesised CP derivatives were subjected to anticancer activity evaluation against bladder (T-24) and prostate cancer (PC-3) cell lines. The compounds were evaluated for their activity using 5 doses determinations (100 μg/ml, 25 μg/ml, 6.25 μg/ml, 1.60 μg/ml, and 0.39 μg/ml). Their half-maximal inhibitory concentration (IC50) values were measured. Doxorubicin was chosen as a reference anticancer drug[65].

[2] = target: T1, human DNA Topo II (Homo sapiens, UniProt P11388); test: In vitro DNA Topo II-mediated relaxation assay (supercoiled pBR322); format: biochemical; conditions: for IC50: means of three experiments, read-out: Topo II IC50 (µM*±SD); for inhibition at 0.1 µM / inhibition at 1 µM / inhibition at 10 µM / inhibition at 100 µM: recombinant Topo II relaxation; for inhibition at 0.1 µM: compound at 0.1 μM, read-out: Percentage of inhibition of Topo II, 0.1 μM; for inhibition at 1 µM: compound at 1 μM, read-out: Percentage of inhibition of Topo II, 1 μM; for inhibition at 10 µM: compound at 10 μM, read-out: Percentage of inhibition of Topo II, 10 μM; for inhibition at 100 µM: compound at 100 μM, read-out: Percentage of inhibition of Topo II, 100 μM
T1 construct: purchased USB Corp., USA
T1 sequence (P11388 whole entry): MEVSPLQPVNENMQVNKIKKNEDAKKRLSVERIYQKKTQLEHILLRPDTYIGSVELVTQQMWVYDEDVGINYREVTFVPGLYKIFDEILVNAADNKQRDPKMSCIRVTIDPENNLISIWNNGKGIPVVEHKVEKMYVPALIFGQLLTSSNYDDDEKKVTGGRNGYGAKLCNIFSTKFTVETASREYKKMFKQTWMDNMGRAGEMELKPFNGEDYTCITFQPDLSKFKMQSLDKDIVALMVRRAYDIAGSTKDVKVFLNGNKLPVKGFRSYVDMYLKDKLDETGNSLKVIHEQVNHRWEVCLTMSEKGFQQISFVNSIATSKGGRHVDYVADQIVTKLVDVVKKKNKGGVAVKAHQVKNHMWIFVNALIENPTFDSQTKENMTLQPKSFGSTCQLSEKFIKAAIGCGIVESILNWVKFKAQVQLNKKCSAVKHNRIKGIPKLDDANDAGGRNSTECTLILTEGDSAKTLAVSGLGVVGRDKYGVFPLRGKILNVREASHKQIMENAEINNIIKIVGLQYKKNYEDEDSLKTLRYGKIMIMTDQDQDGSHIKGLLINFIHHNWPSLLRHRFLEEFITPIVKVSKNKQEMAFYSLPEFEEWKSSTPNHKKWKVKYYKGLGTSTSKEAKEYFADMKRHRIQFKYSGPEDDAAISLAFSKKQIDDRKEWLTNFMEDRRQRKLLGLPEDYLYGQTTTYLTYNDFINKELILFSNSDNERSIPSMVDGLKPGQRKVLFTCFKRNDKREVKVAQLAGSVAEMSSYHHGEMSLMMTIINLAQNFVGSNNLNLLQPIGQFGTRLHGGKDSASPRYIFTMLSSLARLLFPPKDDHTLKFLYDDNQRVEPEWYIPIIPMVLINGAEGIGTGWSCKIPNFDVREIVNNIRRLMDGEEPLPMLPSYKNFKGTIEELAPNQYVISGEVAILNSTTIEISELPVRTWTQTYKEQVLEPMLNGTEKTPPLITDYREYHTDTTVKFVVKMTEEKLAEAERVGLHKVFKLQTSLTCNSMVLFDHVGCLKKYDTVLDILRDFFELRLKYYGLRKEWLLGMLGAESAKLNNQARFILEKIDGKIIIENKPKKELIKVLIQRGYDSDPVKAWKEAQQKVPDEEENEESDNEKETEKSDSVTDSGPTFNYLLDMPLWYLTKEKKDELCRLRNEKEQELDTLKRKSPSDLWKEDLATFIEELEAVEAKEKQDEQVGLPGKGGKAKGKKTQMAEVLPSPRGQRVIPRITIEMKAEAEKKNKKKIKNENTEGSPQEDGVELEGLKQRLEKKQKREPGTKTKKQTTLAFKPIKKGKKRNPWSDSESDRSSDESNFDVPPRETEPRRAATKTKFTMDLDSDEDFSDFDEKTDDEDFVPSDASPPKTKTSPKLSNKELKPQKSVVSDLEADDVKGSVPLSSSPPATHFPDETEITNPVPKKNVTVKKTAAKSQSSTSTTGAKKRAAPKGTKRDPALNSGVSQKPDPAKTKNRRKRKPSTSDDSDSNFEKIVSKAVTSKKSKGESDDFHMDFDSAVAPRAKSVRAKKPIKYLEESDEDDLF
Experimental: DNA Topo II inhibitory activities of the targeted compounds were measured as follows. A mixture of 100 ng of supercoiled pBR322 plasmid DNA (Fermentas, USA) and 2 units of human DNA Topo II (USB Corp., USA) was incubated with and without the prepared compounds in the assay buffer (10 µM Tris-HCl pH 7.9) containing 50 µM NaCl, 4 µM MgCl2, 1 µM EDTA, 1 µM ATP, and 15 mg/ml bovine serum albumin for 30 min at 37 °C. The reaction in a final volume of 10 µl was terminated by the addition of 4 µl of 6 µM EDTA. DNA samples were then electrophoresed on 1% agarose gel containing 0.5 µg/ml ethidium bromide in gel and buffer at high voltage (100–250 v) until the dye front has migrated about 4–6 cm down the gel. with a running buffer of TAE Tris-acetate– EDTA (TAE). Gels were stained for 15 min in water. DNA bands were visualised by transillumination with UV light and quantitated using AlphaI-maker TM (Alpha Innotech Corporation).
Well-known Topo II inhibitor doxorubicin was used as a positive control. The reaction products of Topo II relaxation assays were analysed by electrophoretic mobility and developed in ethidium bromide in the presence of UV light. The inhibitory activities were evaluated at 4 concentrations of 100, 10, 1, and 0.1 μM for all compounds as shown in (Figure 6). Topo II inhibitory activities of the tested compounds are summarised in (Table 2).

[3] = test system: Human bladder cancer (T-24) cell line; test: MTT cell viability assay, T-24 cells; format: cell-based; conditions: bladder cancer cell line T-24, treatment for 24 h (table title), means of three experiments, read-out: IC50 (μM* ± SD) T-24
Experimental: as §1, §2, §3

[4] = test system: active caspase-3; test: Active caspase-3 ELISA in T-24 cells; format: cell-based, human; conditions: 6 at 5.68 μM, 8a at 3.36 μM, means of three experiments
Experimental: The level of the apoptotic marker caspase-3 was measured using The Invitrogen Caspase-3 (active) Human ELISA Kit. The procedure of the used kit was done according to the manufacturer’s instructions.
Caspase-3 (a key effector enzyme) plays an important role in apoptosis since its activation leads to catalysing specific enzymes responsible for DNA fragmentation, which leads to cell death. Apoptosis induction in T-24 cells by compounds 6 and 8a was investigated via caspase 3, compared to doxorubicin as a reference drug.

Compound | IC50 [1] [µM] | IC50 [2] [µM] | inhibition at 0.1 µM [2] [%] | inhibition at 1 µM [2] [%] | inhibition at 10 µM [2] [%] | inhibition at 100 µM [2] [%] | melting point [°C] | IC50 [3] [µM] | Caspase-3 conc. (pg/ml* ± SD) [4] [pg/mL]
O=C(CN1CCN(c2cc3c(cc2F)c(=O)c(C(=O)O)cn3C2CC2)CC1)NN=C1CCCCC1 [Compound 7a, 7-(4-(2-(2-Cyclohexylidenehydrazinyl)-2-oxoethyl)piperazin-1-yl)-1-cyclopropyl-6-fluoro-4-oxo-1,4-dihydroquinoline-3-carboxylic acid] | 9.35 ± 0.48 | 4.99 ± 0.27 | 13.7 | 27.9 | 55.9 | 83.6 | 256 to 258 | 3.88 ± 0.21 | –
O=C(CN1CCN(c2cc3c(cc2F)c(=O)c(C(=O)O)cn3C2CC2)CC1)NNC(=O)Nc1ccc(Cl)c(C(F)(F)F)c1 [Compound 9a, 7-(4-(2-(2-((4-Chloro-3-(trifluoromethyl)phenyl)carbamoyl)-hydrazinyl)-2-oxoethyl)piperazin-1-yl)-1-cyclopropyl-6-fluoro-4-oxo-1,4-dihydroquinoline-3-carboxylic acid] | 67.2 ± 3.42 | 2.58 ± 0.14 | 23.6 | 40.3 | 57 | 86.5 | 186 to 188 | 4.35 ± 0.24 | –
CC(=NNC(=O)CN1CCN(c2cc3c(cc2F)c(=O)c(C(=O)O)cn3C2CC2)CC1)c1ccc(Cl)cc1 [Compound 7b, 7-(4-(2-(2-(1-(4-Chlorophenyl)ethylidene)hydrazinyl)-2-oxoethyl)-piperazin-1-yl)-1-cyclopropyl-6-fluoro-4-oxo-1,4-dihydroquinoline-3-carboxylic acid] | 19 ± 0.96 | 3.34 ± 0.18 | 18.4 | 34 | 60.3 | 85.2 | 178 to 180 | 11.5 ± 0.63 | –

The next lines start with results.

IC50 [1] [µM] | IC50 [2] [µM] | inhibition at 0.1 µM [2] [%] | inhibition at 1 µM [2] [%] | inhibition at 10 µM [2] [%] | inhibition at 100 µM [2] [%] | melting point [°C] | IC50 [3] [µM] | Compound | Caspase-3 conc. (pg/ml* ± SD) [4] [pg/mL]
23.1 ± 1.18 | 1.72 ± 0.08 | – | – | – | – | – | 29.1 ± 1.56 | COc1cccc2c1C(=O)c1c(O)c3c(c(O)c1C2=O)C[C@@](O)(C(=O)CO)C[C@@H]3O[C@H]1C[C@H](N)[C@H](O)[C@H](C)O1 [Doxorubicin, reference compound] | 598.8 ± 8.63
3.25 ± 0.167 | 1.69 ± 0.09 | 24.8 | 37.7 | 72.6 | 90.2 | 221 to 223 | 10.1 ± 0.55 | O=C(CN1CCN(c2cc3c(cc2F)c(=O)c(C(=O)O)cn3C2CC2)CC1)NNCC(=O)c1ccc([N+](=O)[O-])cc1 [Compound 10c, 1-Cyclopropyl-6-fluoro-7-(4-(2-(2-(2-(4-nitrophenyl)-2-oxoethyl)-hydrazinyl)-2-oxoethyl)piperazin-1-yl)-4-oxo-1,4-dihydroquinoline-3-carboxylic acid] | –
